Source: patent US7928140B2, “Benzothiazole PI3 kinase modulators for cancer treatment” (Amgen Inc., priority 2007, dated 2011)

Key:
PI3K β = biological target: T1, PI3K β (Homo sapiens, UniProt P42338); experiment: In vitro PI3 kinase enzyme assay (beta), ATP loss, bioluminescence; assay type: biochemical; conditions: read-out: PI3Kβ ATP loss IC50;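 also: purified p110β/p85 heterodimer with PtdIns(4,5)P2 as acceptor, incubated at room temperature, leftover ATP read by luminescence, inhibition scaled to compound-free wells with and without enzyme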
T1 construct: Full length p110 subunits of PI3K α, β and δ, N-terminally labeled with polyHis tag; polyHis (N); made in house; host or cells: Sf9 insect cells (baculovirus)
T1 sequence (P42338 whole entry): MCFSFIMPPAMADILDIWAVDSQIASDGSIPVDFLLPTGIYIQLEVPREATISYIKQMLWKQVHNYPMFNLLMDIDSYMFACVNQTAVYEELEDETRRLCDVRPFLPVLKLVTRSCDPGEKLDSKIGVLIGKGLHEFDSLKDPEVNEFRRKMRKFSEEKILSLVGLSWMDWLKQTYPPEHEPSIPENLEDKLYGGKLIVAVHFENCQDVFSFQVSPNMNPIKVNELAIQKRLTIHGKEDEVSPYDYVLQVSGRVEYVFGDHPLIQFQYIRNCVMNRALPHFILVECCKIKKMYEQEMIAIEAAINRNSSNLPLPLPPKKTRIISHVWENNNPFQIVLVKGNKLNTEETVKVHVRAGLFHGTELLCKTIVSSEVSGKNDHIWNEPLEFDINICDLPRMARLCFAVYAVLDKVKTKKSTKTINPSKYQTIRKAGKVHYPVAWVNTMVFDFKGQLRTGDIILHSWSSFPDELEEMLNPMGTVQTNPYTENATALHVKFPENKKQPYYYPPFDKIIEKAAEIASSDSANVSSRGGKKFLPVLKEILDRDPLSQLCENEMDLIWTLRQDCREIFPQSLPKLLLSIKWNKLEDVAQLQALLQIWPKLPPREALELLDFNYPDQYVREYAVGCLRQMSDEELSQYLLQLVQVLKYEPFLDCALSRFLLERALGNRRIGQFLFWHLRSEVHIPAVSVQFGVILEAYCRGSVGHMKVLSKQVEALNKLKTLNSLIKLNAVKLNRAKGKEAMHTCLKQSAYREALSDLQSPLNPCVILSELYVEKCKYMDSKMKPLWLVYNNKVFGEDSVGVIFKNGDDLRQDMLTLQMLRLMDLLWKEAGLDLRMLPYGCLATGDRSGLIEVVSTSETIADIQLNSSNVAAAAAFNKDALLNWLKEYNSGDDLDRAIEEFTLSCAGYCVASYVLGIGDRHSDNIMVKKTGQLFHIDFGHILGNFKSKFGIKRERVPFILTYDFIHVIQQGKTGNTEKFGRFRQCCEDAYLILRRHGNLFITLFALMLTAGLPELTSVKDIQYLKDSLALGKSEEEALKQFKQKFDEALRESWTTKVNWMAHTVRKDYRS
T1 sequence (P27986 whole entry partner): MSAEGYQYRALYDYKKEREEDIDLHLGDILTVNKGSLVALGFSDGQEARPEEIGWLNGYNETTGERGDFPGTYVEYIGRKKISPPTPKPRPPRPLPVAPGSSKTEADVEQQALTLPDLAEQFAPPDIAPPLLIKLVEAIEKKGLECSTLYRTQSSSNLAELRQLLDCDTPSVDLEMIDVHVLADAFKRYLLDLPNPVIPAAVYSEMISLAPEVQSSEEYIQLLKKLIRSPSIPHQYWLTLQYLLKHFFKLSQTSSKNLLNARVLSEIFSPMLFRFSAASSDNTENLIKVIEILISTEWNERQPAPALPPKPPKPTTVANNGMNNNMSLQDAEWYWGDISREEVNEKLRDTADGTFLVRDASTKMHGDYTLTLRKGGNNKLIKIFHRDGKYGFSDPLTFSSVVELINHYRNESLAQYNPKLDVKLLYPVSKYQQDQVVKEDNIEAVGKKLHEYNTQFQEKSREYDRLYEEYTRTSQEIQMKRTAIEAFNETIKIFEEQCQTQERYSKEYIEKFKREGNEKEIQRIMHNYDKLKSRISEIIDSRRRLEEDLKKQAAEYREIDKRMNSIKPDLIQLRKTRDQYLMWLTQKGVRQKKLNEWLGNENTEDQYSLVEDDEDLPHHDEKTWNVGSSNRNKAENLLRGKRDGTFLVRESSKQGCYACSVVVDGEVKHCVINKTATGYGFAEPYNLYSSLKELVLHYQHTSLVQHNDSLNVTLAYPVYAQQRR

PI3K α = biological target: T2, PI3K α (Homo sapiens, UniProt P42336); experiment: In vitro PI3 kinase enzyme assay (alpha), ATP loss, bioluminescence; assay type: biochemical; conditions: read-out: PI3Kα ATP loss IC50;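 also: purified p110α/p85 heterodimer acting on PtdIns(4,5)P2 at room temperature, remaining ATP read by luminescence, inhibition scaled between compound-free wells with and without enzyme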
T2 construct: Full length p110 subunits of PI3K α, β and δ, N-terminally labeled with polyHis tag; polyHis (N); made in house; host or cells: Sf9 insect cells (baculovirus)
T2 sequence (P42336 whole entry, species assumed): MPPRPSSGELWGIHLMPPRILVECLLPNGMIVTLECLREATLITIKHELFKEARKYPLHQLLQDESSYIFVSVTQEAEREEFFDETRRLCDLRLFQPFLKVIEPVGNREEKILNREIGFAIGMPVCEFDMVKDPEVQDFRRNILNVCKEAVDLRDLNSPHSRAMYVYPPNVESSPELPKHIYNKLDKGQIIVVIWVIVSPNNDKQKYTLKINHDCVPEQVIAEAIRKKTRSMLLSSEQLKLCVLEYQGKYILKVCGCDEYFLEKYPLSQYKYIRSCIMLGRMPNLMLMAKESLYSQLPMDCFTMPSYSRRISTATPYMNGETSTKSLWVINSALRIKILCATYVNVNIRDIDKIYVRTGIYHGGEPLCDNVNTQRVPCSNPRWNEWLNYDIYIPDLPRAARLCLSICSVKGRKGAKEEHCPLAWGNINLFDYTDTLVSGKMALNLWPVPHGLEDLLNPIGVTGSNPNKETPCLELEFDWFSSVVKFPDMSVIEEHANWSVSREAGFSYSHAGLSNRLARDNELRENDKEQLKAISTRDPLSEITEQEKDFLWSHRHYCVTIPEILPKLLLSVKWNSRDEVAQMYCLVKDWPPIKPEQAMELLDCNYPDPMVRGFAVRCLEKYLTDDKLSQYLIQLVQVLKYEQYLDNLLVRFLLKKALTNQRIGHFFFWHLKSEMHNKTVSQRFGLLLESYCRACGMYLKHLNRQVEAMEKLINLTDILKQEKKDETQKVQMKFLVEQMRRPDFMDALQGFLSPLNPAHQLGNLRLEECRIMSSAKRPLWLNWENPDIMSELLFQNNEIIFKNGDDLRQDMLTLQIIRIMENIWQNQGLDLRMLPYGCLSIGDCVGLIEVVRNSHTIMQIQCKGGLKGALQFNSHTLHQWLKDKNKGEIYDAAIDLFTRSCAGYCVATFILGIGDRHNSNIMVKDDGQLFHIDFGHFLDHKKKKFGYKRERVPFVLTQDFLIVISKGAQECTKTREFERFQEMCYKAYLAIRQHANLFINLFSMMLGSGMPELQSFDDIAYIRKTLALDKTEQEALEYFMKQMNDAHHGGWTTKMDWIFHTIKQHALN
T2 sequence (P27986 whole entry partner, species assumed): as the sequence (P27986 whole entry partner) above

IC50 (PI3K β) | IC50 (PI3K α) | SMILES
0.384 µM | 222 nM | COc1ccc(S(=O)(=O)Nc2cc(-c3ccc4nc(SC)sc4c3)cnc2Cl)cc1 [Example 327, N-(2-chloro-5-(2-(methylsulfanyl)-1,3-benzothiazol-6-yl)-3-pyridinyl)-4-methoxybenzenesulfonamide]
1.44 µM | 3830 nM | Nc1nc2ccc(-c3cccc(NS(=O)(=O)c4ccccc4)n3)cc2s1 [Example 71, N-(6-(2-Aminobenzo[d]thiazol-6-yl)pyridin-2-yl)benzenesulfonamide]
3.93 µM | > 40000 nM | O=C(Nc1nc2ccc(-c3ccnc(OCc4ccccc4)n3)cc2s1)c1ccccc1 [Example 58, N-(6-(2-(benzyloxy)-4-pyrimidinyl)-1,3-benzothiazol-2-yl)benzamide]
2.94 µM | 965 nM | CC(C)(C)Nc1cc(-c2ccc3nc(N)sc3c2)cnc1Cl [Example 315, 6-(5-(tert-butylamino)-6-chloro-3-pyridinyl)-1,3-benzothiazol-2-amine]
0.134 µM | 83.6 nM | CC(=O)Nc1nc2ccc(-c3ccnc(Sc4cccc(Cl)c4)n3)cc2s1 [Example 140, N-(6-(2-((3-chlorophenyl)sulfanyl)-4-pyrimidinyl)-1,3-benzothiazol-2-yl)acetamide]
0.576 µM | 161 nM | CC(=O)Nc1nc2ccc(-c3cccc(N(C)S(=O)(=O)c4ccccc4F)n3)cc2s1 [Example 226, N-(6-(6-(2-fluoro-N-methylphenylsulfonamido)pyridin-2-yl)benzo[d]thiazol-2-yl)acetamide]
5.8 µM | 663 nM | CC(C)(C)OC(=O)Nc1nc2ccc(-c3nnc(NS(=O)(=O)c4ccc(F)cc4)o3)cc2s1 [Example 167, tert-Butyl 6-(5-(4-fluorophenylsulfonamido)-1,3,4-oxadiazol-2-yl)benzo[d]thiazol-2-ylcarbamate]
4.8 µM | 2190 nM | CC(=O)Nc1nc2ccc(-c3cnc(Cl)c(N(C(=O)OC(C)(C)C)C(=O)OC(C)(C)C)c3)cc2s1 [Example 277, Bis(tert-butyl) 5-(2-acetamidobenzo[d]thiazol-6-yl)-2-chloropyridin-3-ylcarbamate]
45 µM | 2920 nM | CC(=O)Nc1nc2ccc(-c3cncc(OCCN4CCC(C)(C)C4=O)c3)cc2s1 [Example 252]
4.69 µM | 556 nM | CC(=O)Nc1nc2ccc(-c3csc(S(=O)(=O)c4ccccc4F)n3)cc2s1 [Example 63, N-(6-(2-(2-fluorophenylsulfonyl)thiazol-4-yl)benzo[d]thiazol-2-yl)acetamide]
20.4 µM | 1210 nM | COCCCNc1nccc(-c2ccc3nc(NC(C)=O)sc3c2)n1 [Example 46, N-(6-(2-((3-methoxypropyl)amino)-4-pyrimidinyl)-1,3-benzothiazol-2-yl)acetamide]
3.35 µM | 300 nM | CC(=O)Nc1nc2ccc(-c3cccc(S(=O)(=O)c4cccc(F)c4)n3)cc2s1 [Example 67, N-(6-(6-((3-fluorophenyl)sulfonyl)-2-pyridinyl)-1,3-benzothiazol-2-yl)acetamide]
0.743 µM | 462 nM | CC(=O)Nc1nc2ccc(-c3ccnc(N(C)S(=O)(=O)c4cccc5cnccc45)n3)cc2s1 [Example 208, N-(6-(2-(N-methylisoquinoline-5-sulfonamido)pyrimidin-4-yl)benzo[d]thiazol-2-yl)acetamide]
17.1 µM | 3840 nM | CC(=O)Nc1nc2ccc(-c3cnccc3OC(F)F)cc2s1 [Example 248, N-(6-(4-(difluoromethoxy)pyridin-3-yl)benzo[d]thiazol-2-yl)acetamide]
0.849 µM | 60.6 nM | CC(=O)Nc1nc2ccc(-c3ccnc(NS(=O)(=O)c4cccnc4)n3)cc2s1 [Example 79, N-(6-(2-(pyridine-5-sulfonamido)pyrimidin-4-yl)benzo[d]thiazol-2-yl)acetamide]
7.44 µM | 837 nM | CC(=O)Nc1nc2ccc(-c3cncc(OCCN4CCOC4=O)c3)cc2s1 [Example 232, N-(6-(5-(2-(2-oxooxazolidin-3-yl)ethoxy)pyridin-3-yl)benzo[d]thiazol-2-yl)acetamide]
0.45 µM | 438 nM | CC(=O)Nc1nc2ccc(-c3ccnc(N(C)S(=O)(=O)c4ccc(C)cc4)c3)cc2s1 [Example 215, N-(6-(2-(N,4-dimethylphenylsulfonamido)pyridin-4-yl)benzo[d]thiazol-2-yl)acetamide]
29.9 µM | 1720 nM | CN(C)c1cc(-c2ccc3nc(NS(C)(=O)=O)sc3c2)cnc1Cl [Example 276, N-(6-(6-chloro-5-(dimethylamino)pyridin-3-yl)benzo[d]thiazol-2-yl)methanesulfonamide]
40.8 µM | 2600 nM | CC(=O)Nc1nc2ccc(-c3ccnc(NN4CCCCC4)n3)cc2s1 [Example 265, N-(6-(2-(piperidin-1-ylamino)pyrimidin-4-yl)benzo[d]thiazol-2-yl)acetamide]

IC50 (PI3K β) | IC50 (PI3K α) | SMILES
> 40 µM | 601 nM | CC(=O)Nc1nc2ccc(-c3ccnc(OCCCN4CCOC4=O)n3)cc2s1 [Example 32, N-(6-(2-(3-(2-oxo-1,3-oxazolidin-3-yl)propoxy)-4-pyrimidinyl)-1,3-benzothiazol-2-yl)acetamide]
2.4 µM | 333 nM | CC(=O)Nc1ccc(Sc2nccc(-c3ccc4nc(NC(C)=O)sc4c3)n2)cc1 [Example 29, N-(4-((4-(2-(acetylamino)-1,3-benzothiazol-6-yl)-2-pyrimidinyl)sulfanyl)phenyl)acetamide]
0.261 µM | 19.6 nM | CC(=O)Nc1nc2ccc(-c3ccnc(Sc4ccc(C)cc4C)n3)cc2s1 [Example 122, N-(6-(2-((2,4-dimethylphenyl)sulfanyl)-4-pyrimidinyl)-1,3-benzothiazol-2-yl)acetamide]
8.83 µM | 277 nM | CCC(=O)Nc1nc2ccc(-c3ccnc(OCc4ccccc4)n3)cc2s1 [Example 57, N-(6-(2-(benzyloxy)-4-pyrimidinyl)-1,3-benzothiazol-2-yl)propanamide]
1.61 µM | 2620 nM | CC(=O)Nc1nc2ccc(-c3ccnc(N4CCCC4c4ccccc4)n3)cc2s1 (racemic) [Example 266, N-(6-(2-(2-phenylpyrrolidin-1-yl)pyrimidin-4-yl)benzo[d]thiazol-2-yl)acetamide]
> 40 µM | 1940 nM | CC(=O)Nc1nc2ccc(-c3ccnc(N4CCCCC4)n3)cc2s1 [Example 263, N-(6-(2-(piperidin-1-yl)pyrimidin-4-yl)benzo[d]thiazol-2-yl)acetamide]
> 40 µM | 7330 nM | O=C(CN1CCOCC1)Nc1nc2ccc(-c3ccnc(OCc4ccccc4)n3)cc2s1 [Example 54, N-(6-(2-(benzyloxy)-4-pyrimidinyl)-1,3-benzothiazol-2-yl)-2-(4-morpholinyl)acetamide]
26.7 µM | 10700 nM | CC(=O)Nc1nc2ccc(-c3ccnc(OCC4CCN(C)CC4)n3)cc2s1 [Example 25, N-(6-(2-((1-methyl-4-piperidinyl)methoxy)-4-pyrimidinyl)-1,3-benzothiazol-2-yl)acetamide]
8.11 µM | 717 nM | CC(=O)Nc1nc2ccc(-c3ccc(OC(F)F)nc3)cc2s1 [Example 249, N-(6-(6-(difluoromethoxy)pyridin-3-yl)benzo[d]thiazol-2-yl)acetamide]
3.79 µM | 983 nM | CC(=O)Nc1nc2ccc(-c3cc(OC(C)C#N)cnc3Cl)cc2s1 (stereo not drawn) [Example 291, N-(6-(2-chloro-5-(1-cyanoethoxy)pyridin-3-yl)benzo[d]thiazol-2-yl)acetamide]
> 40 µM | 2490 nM | CC(=O)Nc1nc2ccc(-c3ccnc(Nc4ccccn4)n3)cc2s1 [Example 264, N-(6-(2-(pyridin-2-ylamino)pyrimidin-4-yl)benzo[d]thiazol-2-yl)acetamide]
> 40 µM | 288 nM | CC(=O)Nc1nc2ccc(-c3cccc4[nH]ncc34)cc2s1 [Example 99, N-(6-(1H-Indazol-4-yl)benzo[d]thiazol-2-yl)acetamide]
2.99 µM | 688 nM | COc1cc(C)c(-c2ccc3nc(NC(C)=O)sc3c2)cn1 [Example 244, N-(6-(6-methoxy-4-methylpyridin-3-yl)benzo[d]thiazol-2-yl)acetamide]
0.864 µM | 275 nM | CNc1ncc(-c2ccc3nc(NC(C)=O)sc3c2)cc1N [Example 152, N-(6-(5-amino-6-(methylamino)pyridin-3-yl)benzo[d]thiazol-2-yl)acetamide]
10 µM | 3140 nM | CC(=O)Nc1nc2ccc(-c3cccc4sc(=O)[nH]c34)cc2s1 [Example 98, N-(6-(2-oxo-2,3-Dihydrobenzo[d]thiazol-4-yl)benzo[d]thiazol-2-yl)acetamide]
0.855 µM | 185 nM | CC(=O)Nc1nc2ccc(-c3ccnc(N(C)S(=O)(=O)c4ccsc4)n3)cc2s1 [Example 209, N-(6-(2-(N-methylthiophene-3-sulfonamido)pyrimidin-4-yl)benzo[d]thiazol-2-yl)acetamide]
2.88 µM | 69.9 nM | CC(=O)Nc1nc2ccc(-c3ccnc(Sc4ccc(Cl)cc4)n3)cc2s1 [Example 138, N-(6-(2-((4-chlorophenyl)sulfanyl)-4-pyrimidinyl)-1,3-benzothiazol-2-yl)acetamide]
0.93 µM | 324 nM | CC(=O)Nc1nc2ccc(-c3ccnc(N(C)S(=O)(=O)c4ccc(F)cc4)n3)cc2s1 [Example 203, N-(6-(2-(4-fluoro-N-methylphenylsulfonamido)pyrimidin-4-yl)benzo[d]thiazol-2-yl)acetamide]

SMILES | IC50 (PI3K β) | IC50 (PI3K α)
Nc1nc2ccc(-c3ccnc(NCCCc4ccccc4)n3)cc2s1 [Example 45, 6-(2-(3-Phenylpropylamino)pyrimidin-4-yl)benzo[d]thiazol-2-amine] | 0.455 µM | 1970 nM
CC(=O)Nc1nc2ccc(-c3ccnc(Cc4ccccc4)n3)cc2s1 [Example 13, N-(6-(2-Benzylpyrimidin-4-yl)benzo[d]thiazol-2-yl)acetamide] | > 40 µM | 4480 nM
